The text below walks through data of the NIST ThermoML archive (doi:10.1016/j.tca.2012.03.018).

A short description of the data set: molar enthalpy of vaporization or sublimation. The settings on record: Liquid.

± gives the expanded uncertainty stated by the source.

`CCCCOC(=O)c1ccccc1C(=O)OCCCC` [dibutyl phthalate]: the molar enthalpy (393 K) stood at 20.1 ± 0.382 kcal/mol.

In the case of `CCn1cc[n+](C)c1.O=S(=O)([N-]S(=O)(=O)C(F)(F)F)C(F)(F)F`, under “525 K”, the molar enthalpy worked out at 26.4 ± 0.717 kcal/mol.

`CCCCCCCCCCCCCCCCCC(=O)OCC` [ethyl octadecanoate]: the molar enthalpy stood at 22 ± 0.335 kcal/mol (373 K) and 22.3 ± 0.335 kcal/mol (383.5 K, Transpiration). On to `CCCCCCCCCCCCCCCC` [hexadecane], for which the molar enthalpy runs as follows: (333.5 K, Transpiration) 17.9 ± 0.191 kcal/mol; (353 K) 17.8 ± 0.382 kcal/mol.

With `CCCCCCCCCCCCCCCCCC(=O)OC` [methyl octadecanoate], the molar enthalpy (353 K) was determined as 21.6 ± 0.239 kcal/mol.
